Legend:
[1] = test system: TH-MYCN transgenic mouse; experiment: tumor reduction in TH-MYCN mouse model of human neuroblastoma; format: in vivo; conditions: homozygous mice, i.p. and/or i.v., every 72 hours for 3 to 6 weeks, vs untreated mice
Excerpt: The TH-MYCN transgenic mouse is a well-established neuroblastoma mouse model (Hansfored, et al. 2004. PNAS 101(34):12664-12669; Weiss, et al. 2007. Cancer Res 67(19):9435-9442; Weiss, et al. 2000. Cancer Res 6″2483-2487, each of which is incorporated herein by reference in its entirety). The tumors are caused by targeted expression of MYCN to the neural crest under the control of the rat tyrosine hydroxylase promoter, where the mice develop a tumor phenotype that closely resembles the human disease. The tumors in this strain of mouse generally develop in the abdominal and thoracic areas. TH-MYCN breeder pairs are supplied as hemizygote (129×1/SvJ-Tg(TH-MYCN)41Waw) and a wild type mate (129×1/SvJ).
Test compounds are administered to homozygous mice at a dose that is developed based upon the results of the initial dose and toxicity study (Example 15). Two to four doses per compound are administered by i.p. and/or i.v. methods into homozygous mice when palpable tumors begin to form. Vehicle is delivered […] as a control. Further doses are administered thereafter every 72 hours for 3 to 6 weeks. Between eight to twelve mice are tested in the study for administration of each compound. […] At the conclusion of the study, the mice are sacrificed and tumor size and number of tumors are assessed.

[2] = biological target: T1, yeast 20S proteasome (Saccharomyces cerevisiae, UniProt P25043+P30656+P38624); experiment: cocrystallization with 20S proteasome, X-ray crystallography; format: binding; conditions: crystal structure of complex
T1 construct: each was cocrystallized with the yeast 20S proteasome; host or cells: yeast
Method: To elucidate the binding mode of syringolin. A and glidobactin A to the proteasome, each was cocrystallized with the yeast 20S proteasome. Crystals of the 20S proteasome were grown in hanging drops at 24° C. as described (Grail et al. 1997. Nature 386:463-471; Groll and Huber. 2005. Methods Enzymol. 398:329-336, each which is incorporated herein by reference in its entirety) and incubated for 60 min with syringolin A or glidobactin A. The protein concentration used for crystallization was 40 mg/ml in Tris-HCI (10 mM, pH 7.5) and EDTA (1 mM). The drops contained 3 μL of protein and 2 μL of the reservoir solution (30 mM magnesium acetate, 100 mM morpholino-ethane-sulphonic acid (pH 7.2) and 10% MPD), X-ray diffraction data to 2.9 Å for the yeast 20S proteasome:syringolin A and to 2.7 Å for the 20S proteasome:glidobactin A-complex were collected using synchrotron radiation with λ=1.05 Å on the BW6-beamline at DESY/Hamburg/Germany and with λ=1.0 Å on the […] at SLS/Villingen/Switzerland, respectively. Crystals were soaked in cryoprotecting buffer (30% MPD, 20 mM magnesium acetate, 100 mM morpholino-ethane-sulfonic acid pH 6.9) and frozen in a stream of liquid nitrogen gas at 90 K (Oxford Cryo Systems). X-ray intensities were evaluated by using the DENZO program package (Otwinowski and Minor. 1997. Methods Enzymol 276:307-326) and data reduction was performed with CCP4 (Potterton et al. 2003. Acta Crystallogr. D Biol. Crystallogr. 59:1131-1137). The space group belongs to P21 with cell dimensions of about a=134 Å, b=302 Å, c=144 Å and β=112° (Table 1). The anisotropy of diffraction was corrected by an overall anisotropic temperature factor by comparing observed and calculated structure amplitudes using the program CNS (Brünger et al. 1998. Acta Crystallogr. D Biol. Crystallogr. 54: 905-921, which is incorporated herein by reference in its entirety). […]

[3] = test system: ubiquitinated proteins; experiment: immunoblot of total ubiquitinated proteins in SK-N-SH cells; format: cell-based, human; conditions: for increase of ubiquitinated proteins: 24 hours of treatment
Method: As inhibition of the proteasome is expected to result in increased levels of ubiquitinated proteins (Meng, et al. 1999. Proc. Natl. Acad. Sci. U.S.A. 96:10403-10408, which is incorporated herein by reference in its entirety), the effect of syringolin A on total ubiquitinated protein accumulation was analyzed by immunoblot analysis. To do so, SK-N-SH cells were seeded in 6-well cell culture plates at a concentration of 3.8×10^5 cells per ml (1.98 ml per well). After 24 hours, 20 μl of syringolin A (final concentration 25 μM) or cell culture medium (control, C) was added. For time-course experiments, cell treatments were staggered in order to process all samples at the same time after 24 hours. Cell lysates were prepared as previously reported (Wallick, et al. 2005. Oncogene 24:5606-5618, which is incorporated herein by reference in its entirety). Sodium dodecyl sulfate-polyacrylamide gel electrophoresis (SDS-PAGE), electro transfer to PVDF Immobilon-P membranes (Millipore) and antibody incubations were performed according to standard procedures. The primary antibodies used were rabbit whole serum ubiquitin (1:150) (U5379; Sigma), mouse monoclonal tumor suppressor protein p53 (1:250) (se-126; Santa Cruz Biotechnology), and rabbit monoclonal α-tubulin (1:1,500) (11H10; Cell Signaling Technology). Horse radish peroxidase (HRP)-conjugated anti-mouse or anti-rabbit antibodies (1:5,000) were used as secondary antibodies. Membranes were developed using the ECL Plus kit following the manufacturer's protocol (Amersham Biosciences) and exposed to Blue Lite Autorad Film (ISC BioExpress). Membranes were stripped with ECL stripping buffer (62.5 mM Tris-HCL, pH 6.7, 2% SDS, 100 mM β-mercaptoethanol) for 20 min at 55° C. and sequentially re-probed with the next antibody.
To further examine the inhibitory effect, whole cell lysates of GlbA-treated or untreated control cells were analyzed by Western blot and ubiquitinated proteins detected at endogenous levels.

Row | Structure (SMILES) | size and number of tumors [1] | binding mode at proteasome active sites [2] | accumulation of ubiquitinated proteins ([3]; 25 μM, time-course) | increase of ubiquitinated proteins [3] | binding to the caspase-like active site [2] | lower concentration of GlbA inducing effects comparable to SylA ([3]; ubiquitinated proteins)
1 | CC(C)[C@H](NC(=O)N[C@H](C(=O)N[C@H]1/C=C/CCNC(=O)/C=C/[C@H](C(C)C)NC1=O)C(C)C)C(=O)O [syringolin A] | effective in reducing both the size and number of tumors | covalently binds to the hydroxy group of the active site N-terminal threonine | time-dependent accumulation of ubiquitinated proteins | 3 fold | – | –
2 | CCCCCCC/C=C/C=C/C(=O)N[C@H](C(=O)N[C@H]1C[C@@H](O)CCNC(=O)/C=C/[C@H](C)NC1=O)[C@@H](C)O [glidobactin A] | effective in reducing both the size and number of tumors | same mechanism of inactivation | – | 3 fold | did not bind | 100 fold
